From patent US20110092476A1, “Bicycloheteroaryl compounds as P2X7 modulators and uses thereof” (Renovis, Inc., priority 2006, published 2011) come the findings set out here.

SMILES strings stand for the structures. Values after ≈ are worked out from the molar mass of the structure shown. Read-outs that look alike come from different tables or passages of the source. Where only a bound is given, the exact number is not on record here.

The nature of data set [1]: Determination of aqueous (kinetic) solubility. The format is physicochemical. The conditions noted are these: aqueous buffer, kinetic from dmso stock, buffer pH 7.4. The method, then: The mixture was vortexed for 1 hour and equilibrated overnight at room temperature. The mixture was filtered through a saturated filter and the filtrate was analyzed by LC/MS/MS.
For the purpose of Table 5, solubility of each compound is expressed as follows: […]

Data set [2] addresses T1, P2X7 receptor (Homo sapiens, UniProt Q99572).
T1 construct: host or cells: THP-1 cells differentiated with LPS and IFN-γ
T1 sequence (Q99572 1-595): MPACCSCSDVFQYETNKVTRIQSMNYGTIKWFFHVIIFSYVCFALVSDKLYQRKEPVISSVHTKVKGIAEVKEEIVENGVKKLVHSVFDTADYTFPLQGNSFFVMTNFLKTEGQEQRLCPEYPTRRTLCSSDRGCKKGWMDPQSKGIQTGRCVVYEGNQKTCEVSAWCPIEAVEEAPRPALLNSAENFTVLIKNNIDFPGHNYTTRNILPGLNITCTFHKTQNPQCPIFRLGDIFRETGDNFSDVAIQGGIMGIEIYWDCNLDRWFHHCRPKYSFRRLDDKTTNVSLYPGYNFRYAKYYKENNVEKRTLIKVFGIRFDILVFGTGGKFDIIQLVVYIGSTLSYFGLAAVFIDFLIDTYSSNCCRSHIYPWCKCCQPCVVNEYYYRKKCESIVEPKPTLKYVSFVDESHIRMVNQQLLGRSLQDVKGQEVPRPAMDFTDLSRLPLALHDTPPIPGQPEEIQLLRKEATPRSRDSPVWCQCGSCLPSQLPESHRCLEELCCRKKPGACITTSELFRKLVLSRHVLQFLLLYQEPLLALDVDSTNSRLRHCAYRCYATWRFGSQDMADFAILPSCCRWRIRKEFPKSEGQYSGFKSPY
As to the kind of experiment: IL-1β release assay in differentiated THP-1 cells stimulated with BzATP (Example 9). The data set is classed as cell-based. A digest of the protocol: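 THP-1 cells differentiated 16 h with 100 ng/mL LPS and 100 ng/mL IFN-γ, primed 2 h with fresh LPS, pretreated 30 min with compound, then stimulated 45 min with 250 uM BzATP (final). Supernatant IL-1β measured by ELISA; background-adjusted percent inhibition fitted to a four-parameter logistic for IC50.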

Data set [3] can be described thus: Pharmacokinetic evaluation following intravenous and oral administration in rats (oral bioavailability). The data set is classed as in vivo, rat. The conditions noted are these: male Sprague-Dawley rats, PO 1 to 5 mg/kg vs IV 1 mg/kg, AUCinf dose-normalized. The method, then:
Male Sprague-Dawley rats are acclimatized for at least 24 hours prior to experiment initiation. During acclimation period, all animals receive food and water ad libitum. However, food but not water is removed from the animal's cages at least 12 hours before initiation of the experiment. During the first 3 hours of experimentation, the animals receive only water ad libitum. At least three animals each are tested for intravenous and oral dosage. For intravenous formulation, compounds were dissolved (0.25 to 1 mg/mL) in a mixture of 3% dimethyl sulfoxide, 40% PEG 400 and the rest percentage of 40% Captisol in water (w/v). The animals are weighed before dosing. The determined body weight is used to calculate the dose volume for each animal.
Dose volume (mL/kg)=1 mg/kg/formulation concentration (mg/mL)
In instances where the formulation concentrations were less than 0.5 mg/mL, the dosing volume is about 2 mL/kg.
PO rats are typically dosed through oral gavage following the same dose volume formula as IV to achieve a dose level of 1 to 5 mg/kg. […] About 250 uL of blood is obtained at each time point from the animal. Equal volumes of 0.9% normal saline are replaced to prevent dehydration. The whole blood samples are maintained on ice until centrifugation. Blood samples are then centrifuged at 14,000 rpm for 10 minutes at 4° C. and the upper plasma layer transferred into a clean vial and stored at −80° C. The resulting plasma samples are then analyzed by liquid chromatography-tandem mass spectrometry. Following the measurement of plasma samples and dosing solutions, plasma concentration-time curve is plotted. Plasma exposure is calculated as the area under the concentration-time curve extrapolated to time infinite (AUinf). The AUCinf is averaged and the oral bioavailability (% F) for individual animal is calculated as:
AUCinf (PO)/AUCinf (IV), normalized to their respective dose levels. The % F is reported as the mean % F of all animals dosed orally with the compound of the invention at the specified level (see Table 4 below).
For the purpose of Table 4, oral bioavailability of each compound is expressed as follows: […]

A short description of data set [4]: Half-life in human liver microsomes (HLM). The following applies: pH 7.4. A general note: Liver microsomes are vesicles of endoplasmic reticulum, rich in cytochrome P450 enzymes.
Description: Test compounds (1 μM) are incubated with 3.3 mM MgCl2 and 0.78 mg/mL HLM (HL101) in 100 mM potassium phosphate buffer (pH 7.4) at 37° C. on the 96-deep well plate. The reaction mixture is split into two groups, a non-P450 and a P450 group. NADPH is only added to the reaction mixture of the P450 group. An aliquot of samples of P450 group is collected at 0, 10, 30, and 60 min time point, where 0 min time point indicated the time when NADPH is added into the reaction mixture of P450 group. […] Collected aliquots are extracted with acetonitrile solution containing an internal standard. […] The compound concentration in supernatant is measured by LC/MS/MS system.
The half-life value is obtained by plotting the natural logarithm of the peak area ratio of compounds/internal standard versus time. The slope of the line of best fit through the points yields the rate of metabolism (k). This is converted to a half-life value using following equations:
Setting [5] is: 0.3 μM compound, differentiated THP-1 cells, BzATP 250 uM, "+" symbols, read-out: IL-1β % Inhib. @ 0.3 or 0.1 uM.
Where [6] appears, read: THP-1, read-out: IL-1β % Inhib. @ 0.3 or 0.1 uM.
Where [7] appears, read: 0.3 μM compound (symbols +), differentiated THP-1 cells, BzATP 250 uM, read-out: IL-1β % Inhib. @ 0.3 or 0.1 uM.

Take `C[C@H](CO)n1ccc2c(NC(=O)Cc3ccc(Cl)c(Cl)c3)c(Cl)ccc2c1=O` [Compound 376]: the solubility (commonly how much of the substance goes into solution per volume) in data set [1] is greater than 75 µM. Moreover, in data set [2] (setting [5]), the inhibition at 0.3 µM is greater than 76%. Besides, the “Oral Bioavailability F (%)” value in data set [3] is “++ (26-50% F)”. Moreover, the half-life (usually the time in which the quantity being followed falls by half) at 1 μM in data set [4] is 0.9 h.
The matching figures for `O=C(Cc1ccc(C(F)(F)F)c(F)c1)Nc1cccc2c(=O)n(CCO)ccc12` [Compound 357]: less than 25 µM, greater than 76%, “++++ (>75% F)” and 1.54 h.
On to `C[C@H](C(N)=O)n1ccc2c(NC(=O)Cc3ccc(Cl)cc3)cccc2c1=O` [Compound 256], for which the solubility in data set [1] is less than 25 µM. Further, in data set [2] (setting [5]), the inhibition at 0.3 µM was greater than 76%. The “Oral Bioavailability F (%)” value in data set [3] is “+ (0-25% F)”. In addition, the half-life at 1 μM in data set [4] was 1.29 h.
Take `C[C@H](C(N)=O)n1ccc2c(NC(=O)Cc3ccc(C(F)(F)F)cc3)c(Cl)ccc2c1=O` [Compound 316, (R)-2-{6-Chloro-1-oxo-5-[2-(4-trifluoromethyl-phenyl)-acetylamino]-1H-isoquinolin-2-yl}-propionamide]: the solubility in data set [1] is less than 25 µM. Also, the inhibition at 0.3 µM in data set [2] (setting [6]) was greater than 76%. Also, the “Oral Bioavailability F (%)” value in data set [3] was “++ (26-50% F)”. The same molecule showed a half-life at 1 μM in data set [4] of 3.25 h.
In data set [1], `O=C(CCc1cc(C(F)(F)F)ccc1C(F)(F)F)Nc1cccc2c(=O)n(CCO)ccc12` [Compound 62] displayed a solubility of less than 25 µM. The inhibition at 0.3 µM in data set [2] (setting [7]) was greater than 76%. Further, the “Oral Bioavailability F (%)” value in data set [3] is “+ (0-25% F)”. This molecule also had a half-life at 1 μM in data set [4] of 0.37 h.
In turn, `C[C@H](C(N)=O)n1ccc2c(NC(=O)Cc3ccc(C(F)(F)F)cc3)cccc2c1=O` [Compound 298] showed a solubility in data set [1] of less than 25 µM. Moreover, the inhibition at 0.3 µM in data set [2] (setting [5]) is greater than 76%. Besides, the “Oral Bioavailability F (%)” value in data set [3] was “+ (0-25% F)”. The molecule also gave a half-life at 1 μM in data set [4] of 3.35 h.
`C[C@@H](C(N)=O)n1ccc2c(NC(=O)Cc3ccc(Cl)c(C(F)(F)F)c3)cccc2c1=O` [Compound 353] had a solubility in data set [1] of less than 25 µM. Moreover, in data set [2] (setting [5]), the inhibition at 0.3 µM is greater than 76%. Besides, the “Oral Bioavailability F (%)” value in data set [3] is “+ (0-25% F)”. Moreover, the half-life at 1 μM in data set [4] is 1.01 h.
As to `O=C(Cc1ccc(F)c(C(F)(F)F)c1)Nc1c(Cl)ccc2c(=O)n(CCO)ccc12` [Compound 386, N-[6-Chloro-2-(2-hydroxy-ethyl)-1-oxo-1,2-dihydro-isoquinolin-5-yl]-2-(4-fluoro-3-trifluoromethyl-phenyl)-acetamide], the solubility in data set [1] is less than 25 µM. Also, the inhibition at 0.3 µM in data set [2] (setting [6]) is greater than 76%. Also, in data set [3], the “Oral Bioavailability F (%)” value is reported as “+ (0-25% F)”. The half-life at 1 μM in data set [4] was 1.08 h.
Consider `C[C@H](C(N)=O)n1ccc2c(NC(=O)[C@H](C)c3ccc(Cl)c(Cl)c3)cccc2c1=O` [Compound 269], for which, in data set [1], the solubility lay in the range of 26 to 50 µM (≈ 11.2 to 21.6 µg/mL). The inhibition at 0.3 µM in data set [2] (setting [5]) is greater than 76%. The “Oral Bioavailability F (%)” value in data set [3] is “++ (26-50% F)”. For the same molecule, the half-life at 1 μM in data set [4] is 0.93 h.
For `C[C@H](C(=O)Nc1cccc2c(=O)n([C@H](C)C(N)=O)ccc12)c1ccc(Cl)c(Cl)c1` [Compound 268], the solubility in data set [1] lay within 51 to 75 µM (≈ 22 to 32.4 µg/mL). Besides, in data set [2] (setting [5]), the inhibition at 0.3 µM was greater than 76%. The “Oral Bioavailability F (%)” value in data set [3] was “++ (26-50% F)”. Besides, in data set [4], the half-life at 1 μM is 1.36 h.
For `C[C@H](CO)n1ccc2c(NC(=O)Cc3ccc(C(F)(F)F)cc3F)cccc2c1=O` [Compound 359], the solubility in data set [1] was less than 25 µM. Also, the inhibition at 0.3 µM in data set [2] (setting [5]) is greater than 76%. Moreover, in data set [3], the “Oral Bioavailability F (%)” value is “++++ (>75% F)”. In addition, the half-life at 1 μM in data set [4] was 1.16 h.
In data set [1], `C[C@H](C(=O)Nc1cccc2c(=O)n([C@H](C)C(N)=O)ccc12)c1ccc(Cl)cc1` [Compound 263] returned a solubility greater than 75 µM. The inhibition at 0.3 µM in data set [2] (setting [5]) was greater than 76%. Further, the “Oral Bioavailability F (%)” value in data set [3] is given as “++ (26-50% F)”. The molecule also showed a half-life at 1 μM in data set [4] of 2.31 h.
Taken in the same sequence, the figures for `C[C@H](CO)n1ccc2c(NC(=O)Cc3ccc(F)c(C(F)(F)F)c3)cccc2c1=O` [Compound 339] were greater than 75 µM, greater than 76%, “+++ (51-75% F)” and 0.93 h.
The matching figures for `C[C@H](CO)n1ccc2c(NC(=O)Cc3ccc(Cl)c(F)c3)cccc2c1=O` [Compound 330, 2-(4-Chloro-3-fluorophenyl)-N-[2-((R)-2-hydroxy-1-methyl-ethyl)-1-oxo-1,2-dihydro-isoquinolin-5-yl]-acetamide]: greater than 75 µM, greater than 76%, “++++ (>75% F)” and 1.41 h.
`CC(C(=O)Nc1cccc2c(=O)n([C@H](C)C(N)=O)ccc12)c1ccc(Cl)c(C(F)(F)F)c1` (stereo partly drawn) [Compound 267, (R)-2-{5-[2-(4-Chloro-3-trifluoromethyl-phenyl)-propionylamino]-1-oxo-1H-isoquinolin-2-yl}-propionamide] returned a solubility in data set [1] of 51 to 75 µM (≈ 23.8 to 34.9 µg/mL). The inhibition at 0.3 µM in data set [2] (setting [5]) is greater than 76%. For the same molecule, the “Oral Bioavailability F (%)” value in data set [3] is reported as “++ (26-50% F)”. The same molecule had a half-life at 1 μM in data set [4] of 1.28 h.
`O=C(Cc1ccc(Cl)c(C(F)(F)F)c1)Nc1cccc2c(=O)n(C(CO)CO)ccc12` [Compound 81, 2-(4-Chloro-3-trifluoromethyl-phenyl)-N-[2-(2-hydroxy-1-hydroxymethyl-ethyl)-1-oxo-1,2-dihydro-isoquinolin-5-yl]-acetamide] registered a solubility in data set [1] greater than 75 µM. The inhibition at 0.3 µM in data set [2] (setting [7]) is greater than 76%. Also, the “Oral Bioavailability F (%)” value in data set [3] was “+ (0-25% F)”. This molecule also showed a half-life at 1 μM in data set [4] of 0.72 h.
`C[C@H](CO)n1ccc2c(NC(=O)Cc3ccc(F)c(C(F)(F)F)c3)c(Cl)ccc2c1=O` [Compound 377, N-[6-Chloro-2-((R)-2-hydroxy-1-methyl-ethyl)-1-oxo-1,2-dihydro-isoquinolin-5-yl]-2-(4-fluoro-3-trifluoromethyl-phenyl)-acetamide] came in with a solubility in data set [1] greater than 75 µM. Besides, the inhibition at 0.3 µM in data set [2] (setting [6]) was greater than 76%. For the same molecule, in data set [3], the “Oral Bioavailability F (%)” value is on record as “+++ (51-75% F)”. The molecule further gave a half-life at 1 μM in data set [4] of 1.01 h.
Molecule `C[C@@H](C(N)=O)n1ccc2c(NC(=O)Cc3ccc(C(F)(F)F)cc3)cccc2c1=O` [Compound 351] displayed a solubility in data set [1] of less than 25 µM. In addition, the inhibition at 0.3 µM in data set [2] (setting [5]) is greater than 76%. The “Oral Bioavailability F (%)” value in data set [3] is given as “+ (0-25% F)”. The half-life at 1 μM in data set [4] was 2.36 h.
Turning to `C[C@H](CO)n1ccc2c(NC(=O)Cc3ccc(C(F)(F)F)c(F)c3)c(Cl)ccc2c1=O` [Compound 375, N-[6-Chloro-2-((R)-2-hydroxy-1-methyl-ethyl)-1-oxo-1,2-dihydro-isoquinolin-5-yl]-2-(3-fluoro-4-trifluoromethyl-phenyl)-acetamide], the solubility in data set [1] was greater than 75 µM. The inhibition at 0.3 µM in data set [2] (setting [5]) was greater than 76%. The “Oral Bioavailability F (%)” value in data set [3] is recorded as “++++ (>75% F)”. Besides, in data set [4], the half-life at 1 μM was 1.63 h.
